Experimental data: publication PMC11930985 (Nature Communications, 2025)
Like-named read-outs stand apart in the source and are kept apart here.

Assays:
[1] = tested on: AML patients; settings: cited from earlier work; for Remissions (CR and CRi), patients: patients not eligible for intensive chemotherapy
[2] = tested on: AML/MDS patients
Procedure: Safety assessments including standard clinical laboratory safety tests (hematology, biochemistry, coagulation, and urinalysis), physical examinations, vital signs (blood pressure, heart rate, respiration rate and temperature), and ECOG performance status were performed at baseline and throughout the study. Electrocardiograms were obtained at screening, Cycle 1 Day 1–4, 8, and 15, Cycle 2 Day 1, 8 and 15, at Day 1 of each cycle thereafter, (up to and including Cycle 15), and at Final Study Visit. QT prolongation was assessed using the Fridericia correction […] [34]. Severity of QTcF prolongation was defined as follows: Grade 1: maximum prolongation 450–480 ms; Grade 2: maximum prolongation 481-500 ms; Grade 3: ≥501 ms on at least two separate ECGs; Grade 4: ≥501 ms or >60 ms change from baseline, with Torsades de pointes, polymorphic ventricular tachycardia or signs/symptoms of serious arrythmia; Grade 5: Death.
Adverse events (AEs) were monitored starting at study enrolment until 28 days after end of treatment and graded according to the National Cancer Institute Common Terminology Criteria for Adverse Events (NCI-CTCAE) version 4.0. If drug-related toxicities continued beyond the follow-up period, patients were followed until all drug-related toxicities resolved to grade ≤1, stabilized or returned to baseline.

[3] = tested on: CYP3A4; parameters: method as in Investigator's Brochure (IB) version 5.0; settings: preliminary results; ref Investigator's Brochure (IB) version 5.0; cited from earlier work

## Nc1ccn([C@@H]2O[C@H](CO)[C@@H](O)[C@@H]2O)c(=O)n1 [Cytarabine, reference compound]
[1]; R/R-AML
  Response rate: < 20%
[1]
  Remissions (CR and CRi), patients: less than 35%
[2]; LDAC cohorts
  Patients with cytarabine dose-reduced: 4
[2]; human, in vivo
  Patients with cytarabine interrupted: 8
  Patients with cytarabine withdrawn: 1
[3]
  Extensive metabolism by CYP3A4: does not

## Nc1ncn([C@@H]2O[C@H](CO)[C@@H](O)[C@H]2O)c(=O)n1 [azacitidine]
[1]
  Remissions (CR and CRi), patients: less than 35%

## CC1(C)CCC(CN2CCN(c3ccc(C(=O)NS(=O)(=O)c4ccc(NCC5CCOCC5)c([N+](=O)[O-])c4)c(Oc4cnc5[nH]ccc5c4)c3)CC2)=C(c2ccc(Cl)cc2)C1 [venetoclax]
[1]; HMA or LDAC plus venetoclax, venetoclax-naïve R/R-AML
  Response rate: 31%
[1]; venetoclax added to less-intensive regimens (HMAs or LDAC), frontline
  Response rates: 60–75%

## Nc1ncn([C@H]2C[C@H](O)[C@@H](CO)O2)c(=O)n1 [decitabine]
[1]
  Remissions (CR and CRi), patients: less than 35%
